The source of these data is patent US20260193644A1, “Compositions and Methods For Modulation of Tumor Suppressors and Oncogenes” (FLAGSHIP PIONEERING INNOVATIONS VII, LLC, priority 2022, published 2026).

Assay [1] has as its system U2OS cells. Briefly: WST-1 proliferation assay on U2OS cells treated with peptide. Type of assay: cell-based.
For assay [2], the system named is HCT116 cells. Briefly: WST-1 proliferation assay on HCT116 cells treated with peptide. Type of assay: cell-based. As for the experimental part: Proliferation: HCT-116 cells were plated in 96 well plate (5,000 cells/well) grown in standard media supplemented with 10% FBS. After 48 hours incubation at 37° C. (5% CO2), the cells are subjected to the WST-1 ([…]) assay. The WST-1 assay (Sigma) is a measure of the metabolic activity (i.e. proliferative rate) of cells. […]
On the technique in general: Formazan colour is commonly taken as a measure of viable cells.

[3] abbreviates: Low sera (continued), 0.5 uM, head 3 SD.
[4] abbreviates: Low sera (continued), 0.1 uM, head 2 SD.
The mark [5] stands for this setting: Low sera (continued), 0.1 uM, head 4 SD.

Values joined by “and” are separate entries in the source; they are usually repeats but may differ in a detail not shown here. Equal entries are not always repeated.

For the molecule “SEQ ID NO: 28759: peptide hit of Table E; sequence only in Sequence Listing (MKKSCRWVFFLITKSLFKETVA; listed as Homo sapiens)”, the “proliferation hit score, High sera” value was 1.2 SD in assay [1] (5 uM, head 5 SD); −1.466 SD in assay [2] (0.5 uM, head 3 SD); −1.78 SD in assay [2] (5 uM, head 3 sd). In addition, the “proliferation hit score, Low sera” value in assay [1] (setting [3]) is −1.934 SD; in assay [1] (Low sera, 5 uM, head 2 SD) it was −4.99 SD; in assay [2] (setting [3]) it was 0.5212 SD; in assay [2] (Low sera, 5 uM, head 2 SD) it was −3.329 SD.

Regarding “SEQ ID NO: 29230: peptide hit of Table E; sequence only in Sequence Listing (REQVPGMGGKSWLFFYSLVFCALLPLPRREDPFKLF; listed as Homo sapiens)”, the “proliferation hit score, High sera” value in assay [1] (1 uM, head 5 SD) is recorded as −5.771 SD; in assay [1] (10 uM, head 8 SD) it was −5.758 SD; in assay [2] (0.1 uM, head 3 SD), 2.159 SD; in assay [2] (1 uM, head 2 SD), −0.4364 SD; in assay [2] (10 uM, head 4 SD) it was 0.2713 SD. For the same molecule, the “proliferation hit score, Low sera” value is given as −2.296 SD in assay [1] (setting [4]); 2.01 SD in assay [1] (setting [5]); 3.875 SD in assay [1] (Low sera, 1 uM, head 5 SD); 2.682 SD in assay [1] (Low sera, 10 uM, head 6 SD); −1.09 SD in assay [2] (Low sera, 1 uM, head 3 SD); −2.162 SD in assay [2] (Low sera, 10 uM, head 3 SD).

For “SEQ ID NO: 33599: ORF peptide; sequence only in Sequence Listing (MCLGLLFCFMPLSLVVSSEEARFKVAADLCGFATGNSW; listed as Homo sapiens)”, the “proliferation hit score, High sera” value in assay [1] (1 uM, head 5 SD) is −2.566 SD; in assay [1] (10 uM, head 8 SD) it was −14.68 SD; in assay [2] (0.1 uM, head 3 SD), 0.5427 SD; in assay [2] (1 uM, head 2 SD), −0.6105 SD; in assay [2] (10 uM, head 4 SD) it was −4.843 SD. In addition, the “proliferation hit score, Low sera” value in assay [1] (setting [4]) was −0.8886 SD; in assay [1] (setting [5]), 2.01 SD; in assay [1] (Low sera, 1 uM, head 5 SD), 4.323 SD; in assay [1] (Low sera, 10 uM, head 6 SD) it was −8.391 SD; in assay [2] (Low sera, 1 uM, head 3 SD), −0.9914 SD; in assay [2] (Low sera, 10 uM, head 3 SD) it was −5.29 SD.

For “SEQ ID NO: 33681: peptide hit of Table E; sequence only in Sequence Listing (IMAIFFFFCIIVSSLPTAELGTENACSTCLLNE; listed as Homo sapiens)”, the “proliferation hit score, High sera” value is recorded as −0.8283 SD in assay [1] (1 uM, head 5 SD); −10.57 SD in assay [1] (10 uM, head 8 SD); 0.9926 SD in assay [2] (0.1 uM, head 3 SD); −3.672 SD in assay [2] (1 uM, head 2 SD); −8.606 SD in assay [2] (10 uM, head 4 SD). Also, the “proliferation hit score, Low sera” value in assay [1] (setting [4]) is −1.01 SD; in assay [1] (setting [5]) it was 4.988 SD; in assay [1] (Low sera, 1 uM, head 5 SD), 9.376 SD; in assay [1] (Low sera, 10 uM, head 6 SD), −6.861 SD; in assay [2] (Low sera, 1 uM, head 3 SD) it was 0.1255 SD; in assay [2] (Low sera, 10 uM, head 3 SD) it was −2.584 SD.

As for “SEQ ID NO: 34047: peptide hit of Table E; sequence only in Sequence Listing (MHINYFFFLKLFLSLQNLILALDLRRESLTRDETQ; listed as Homo sapiens)”, the “proliferation hit score, High sera” value is −6.825 SD in assay [1] (5 uM, head 5 SD); 0.5338 SD in assay [2] (0.5 uM, head 3 SD); 0.008734 SD in assay [2] (5 uM, head 3 sd). The “proliferation hit score, Low sera” value in assay [1] (setting [3]) is listed as 2.331 SD; in assay [1] (Low sera, 5 uM, head 2 SD) it was −5.958 SD; in assay [2] (setting [3]) it was 1.561 SD; in assay [2] (Low sera, 5 uM, head 2 SD), 0.3241 SD.

With “SEQ ID NO: 38017: peptide hit of Table E; sequence only in Sequence Listing (GVFVVARDRRRRELRTGAFSLLLGVVALLPLCGKRIQALPRACGCGGPEVLVVPR; listed as Homo sapiens)”, the “proliferation hit score, High sera” value in assay [1] (5 uM, head 5 SD) is recorded as −3.812 SD; in assay [2] (0.5 uM, head 3 SD), −0.9491 SD; in assay [2] (5 uM, head 3 sd) it was −1.457 SD. The “proliferation hit score, Low sera” value in assay [1] (setting [3]) is listed as 2.343 SD; in assay [1] (Low sera, 5 uM, head 2 SD), −2.719 SD; in assay [2] (setting [3]), −0.1996 SD; in assay [2] (Low sera, 5 uM, head 2 SD), −1.525 SD.

In the case of “SEQ ID NO: 38073: peptide hit of Table E; sequence only in Sequence Listing (MTVSLFLLLATSQSQDGCCDSGSCPNSRQQEGHGAAPASSCLPIP; listed as Homo sapiens)”, the “proliferation hit score, High sera” value in assay [1] (5 uM, head 5 SD) is reported as −4.132 SD; in assay [2] (0.5 uM, head 3 SD), 0.3814 SD; in assay [2] (5 uM, head 3 sd), −0.2232 SD. Moreover, the “proliferation hit score, Low sera” value in assay [1] (setting [3]) is on record as 3.652 SD; in assay [1] (Low sera, 5 uM, head 2 SD) it was −1.571 SD; in assay [2] (setting [3]), 0.586 SD; in assay [2] (Low sera, 5 uM, head 2 SD) it was 0.1141 SD.

For “SEQ ID NO: 38076: ORF peptide; sequence only in Sequence Listing (MHLLLLPVIFLPWVLPQHKHTSATPGFSSEKQFMSETENQTANVKFY; listed as Homo sapiens)”, the “proliferation hit score, High sera” value in assay [1] (5 uM, head 5 SD) is −0.8798 SD; in assay [2] (0.5 uM, head 3 SD) it was −0.8521 SD; in assay [2] (5 uM, head 3 sd), −1.476 SD. For the same molecule, the “proliferation hit score, Low sera” value is listed as 3.033 SD in assay [1] (setting [3]); 0.2974 SD in assay [1] (Low sera, 5 uM, head 2 SD); 0.1011 SD in assay [2] (setting [3]); −0.293 SD in assay [2] (Low sera, 5 uM, head 2 SD).

For “SEQ ID NO: 38081: peptide hit of Table E; sequence only in Sequence Listing (MRRAWRPRLLGAALVAH; listed as Homo sapiens)”, the “proliferation hit score, High sera” value is listed as −15.19 SD in assay [1] (1 uM, head 5 SD); −3.67 SD in assay [1] (10 uM, head 8 SD); −0.4952 SD in assay [2] (0.1 uM, head 3 SD); −0.4884 SD in assay [2] (1 uM, head 2 SD); −0.5065 SD in assay [2] (10 uM, head 4 SD). In addition, the “proliferation hit score, Low sera” value is given as −3.47 SD in assay [1] (setting [4]); 2.082 SD in assay [1] (setting [5]); 1.521 SD in assay [1] (Low sera, 1 uM, head 5 SD); −2.322 SD in assay [1] (Low sera, 10 uM, head 6 SD); −3.589 SD in assay [2] (Low sera, 1 uM, head 3 SD); −2.477 SD in assay [2] (Low sera, 10 uM, head 3 SD).

B1: SEQ ID NO: 26298: peptide hit of Table E; sequence only in Sequence Listing (peptide, listed as Homo sapiens)
chain: VQSGKCESSVLGYSATCLPDMGRWRVSSVESWPFASTGGKLAIATAGTGTQAAPRPFLIRPPDSWALALALM
B1: the “proliferation hit score, Low sera” value in assay [1] (setting [3]) was 2.391 SD and 2.95 SD.

B2: SEQ ID NO: 34508: ORF peptide; sequence only in Sequence Listing (peptide, listed as Homo sapiens)
chain: LPLYPLHRKWAGSGLLVFAAPAARAQQGPGEMATVPAPGRTGERALPPPHVSARASFLGSTLWM
On to B2, for which the “proliferation hit score, High sera” value in assay [1] (1 uM, head 5 SD) is −1.711 SD; in assay [1] (5 uM, head 5 SD), −0.8798 SD; in assay [1] (10 uM, head 8 SD), −12.11 SD; in assay [2] (0.1 uM, head 3 SD), −5.097 SD; in assay [2] (0.5 uM, head 3 SD) it was 0.2038 SD; in assay [2] (1 uM, head 2 SD), −2.867 SD. Moreover, the “proliferation hit score, High sera” value in assay [2] (5 uM, head 3 sd) is reported as −0.02329 SD; in assay [2] (10 uM, head 4 SD), −5.856 SD. In addition, the “proliferation hit score, Low sera” value in assay [1] (setting [4]) is given as 1.335 SD; in assay [1] (setting [5]), 3.475 SD; in assay [1] (setting [3]), 5.043 SD; in assay [1] (Low sera, 1 uM, head 5 SD) it was 4.275 SD; in assay [1] (Low sera, 5 uM, head 2 SD), 1.344 SD; in assay [1] (Low sera, 10 uM, head 6 SD) it was −11.74 SD. The “proliferation hit score, Low sera” value in assay [2] (setting [3]) was 0.9567 SD; in assay [2] (Low sera, 1 uM, head 3 SD) it was −1.6 SD; in assay [2] (Low sera, 5 uM, head 2 SD), 1.932 SD; in assay [2] (Low sera, 10 uM, head 3 SD) it was −3.628 SD.
